Legend:
[1] = tested on: JAK/STAT3 signaling; experiment: Extracardiac MSC therapy with WP1066 (echocardiography, ELISA); format: in vivo, hamster
Protocol: FIG. 14: WP1066 inhibits JAK/STAT3 signaling and abrogates MSC-mediated cardiac repair. […] Cells were pretreated with WP1066 at the indicated dosages for 2 hours, following which cells were stimulated with MSC-CM for 30 min. Western blot assays were performed to determine STAT3 activation. B: The extracardiac MSC therapy was carried out as described previously (54). The four treatment groups (n=5 per group) were: WP1066, drug vehicle (PEG), MSC plus WP1066, and MSC plus drug vehicle (MSC+PEG). qRT-PCR assays of myocardial ANP and BNP expression (n=4 per group) after one month were presented. ANOVA was performed to assess statistical significance. *P<0.05 vs. PEG.
FIG. 15: WP1066 blocks MSC-mediated improvement in cardiac function. Cardiac function was determined by blind-folded echocardiography after MSC administration. A: Representative M-mode recording for the four animal groups at 4 weeks. B: LVEF at 2 and 4 weeks after MSCs. ANOVA was performed to assess statistical significance. *P<0.05 vs. PEG; †P<0.05 vs. WP1066; #P<0.05 vs. pre-injection.
FIG. 16: Inhibition of JAK/STAT3 signaling abolishes MSC-induced tissue growth factor levels. Soluble fractions of total hamstring extracts (panel A) and plasma samples (panel B) were assayed using rodent-specific HGF and VEGF ELISA kits (n=4 per group). Tissue growth factor concentrations were expressed as ng per mg soluble proteins. ANOVA was performed to assess statistical significance. *P<0.05 vs. PEG; †P<0.05 vs. WP1066; #P<0.05 vs. MSC+WP1066.

[2] = tested on: STAT3; experiment: Western blot of STAT3 phosphorylation in C2C12 myocytes; format: cell-based; conditions: C2C12 pretreated 2 hours, then MSC-CM for 30 min
Protocol: FIG. 8: Trophic actions of MSCs stimulate JAK/STAT3 signaling in cultured skeletal myocytes. C2C12 myocytes were plated in 6-well plates (10^5 cells per well). After overnight plating, cells were exposed to the indicated conditioned medium. A: Western blot assays of C2C12 cells exposed to MSC-CM for 5 min, 30 min, 6 hr, and 24 hr. B: In situ immunostaining of control medium- and MSC-CM-treated C2C12 cells (30 min incubation) using a p-STAT3 antibody (red) and β-actin antibody (green). Alexa647- and FITC-conjugated secondary antibodies were used. Nuclei were stained with DAPI. C: Western blot assays comparing the effects of porcine MSC-CM, a human embryonic kidney cell line (HEK293) CM, IL-6, IL-11, and LIF on STAT3 phosphorylation in C2C12 myocytes 30 min after treatment. Fifty ng/ml recombinant proteins were used. D: CT for human MSC IL-6-type cytokines. The CT for the house-keeping gene β2-microglobulin and GAPDH are ˜17 and ˜15, respectively.
FIG. 9: gp130/STAT3 signaling stimulates growth factor expression in cultured skeletal myocytes. C2C12 myocytes were treated with […] of a gp130 antibody (R&D Systems; #AF468) or control IgG for one hour at 37° C. The IgG isotype antibody was used as a negative control. Cells were then briefly rinsed and treated with MSC-CM for 30 min to assess STAT3 activation or 3 days for growth factor production. […]

C[C@H](NC(=O)/C(C#N)=C/c1cccc(Br)n1)c1ccccc1 [WP1066]
MSC-mediated improvement in cardiac function (LVEF) ([1]; 2 and 4 weeks after MSCs): blocks
MSC-induced tissue growth factor levels (HGF, VEGF) ([1]; hamstring extracts and plasma): abolishes
MSC-mediated cardiac repair ([1]; myocardial ANP and BNP expression after one month): abrogates
STAT3 phosphorylation [2]: Inhibitory effect
